{"source": "ChEMBL document CHEMBL1132758", "about": "“Synthesis and estrogenic activities of novel 7-thiosubstituted estratriene derivatives” (Bioorg Med Chem Lett, 2000)", "key": {"[1]": {"target": "T1, Estrogen receptor beta (Homo sapiens, UniProt Q92731)", "T1 sequence (Q92731 whole entry)": "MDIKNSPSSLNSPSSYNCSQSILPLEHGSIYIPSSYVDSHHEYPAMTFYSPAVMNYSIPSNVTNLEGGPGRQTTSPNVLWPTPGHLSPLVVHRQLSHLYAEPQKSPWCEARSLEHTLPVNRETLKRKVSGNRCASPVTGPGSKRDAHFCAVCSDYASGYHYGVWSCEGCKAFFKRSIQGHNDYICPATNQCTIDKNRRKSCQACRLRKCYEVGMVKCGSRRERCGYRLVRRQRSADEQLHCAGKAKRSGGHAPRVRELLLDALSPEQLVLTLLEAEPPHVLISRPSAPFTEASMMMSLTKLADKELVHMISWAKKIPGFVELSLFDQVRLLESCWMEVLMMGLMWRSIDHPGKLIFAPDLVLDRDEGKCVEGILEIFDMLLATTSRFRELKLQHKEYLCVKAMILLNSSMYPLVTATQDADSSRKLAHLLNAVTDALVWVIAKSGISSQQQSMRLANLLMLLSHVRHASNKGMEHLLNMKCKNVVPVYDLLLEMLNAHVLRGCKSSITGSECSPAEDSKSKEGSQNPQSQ"}, "[2]": {"target": "T2, Estrogen receptor (Homo sapiens, UniProt P03372)", "T2 sequence (P03372 whole entry)": "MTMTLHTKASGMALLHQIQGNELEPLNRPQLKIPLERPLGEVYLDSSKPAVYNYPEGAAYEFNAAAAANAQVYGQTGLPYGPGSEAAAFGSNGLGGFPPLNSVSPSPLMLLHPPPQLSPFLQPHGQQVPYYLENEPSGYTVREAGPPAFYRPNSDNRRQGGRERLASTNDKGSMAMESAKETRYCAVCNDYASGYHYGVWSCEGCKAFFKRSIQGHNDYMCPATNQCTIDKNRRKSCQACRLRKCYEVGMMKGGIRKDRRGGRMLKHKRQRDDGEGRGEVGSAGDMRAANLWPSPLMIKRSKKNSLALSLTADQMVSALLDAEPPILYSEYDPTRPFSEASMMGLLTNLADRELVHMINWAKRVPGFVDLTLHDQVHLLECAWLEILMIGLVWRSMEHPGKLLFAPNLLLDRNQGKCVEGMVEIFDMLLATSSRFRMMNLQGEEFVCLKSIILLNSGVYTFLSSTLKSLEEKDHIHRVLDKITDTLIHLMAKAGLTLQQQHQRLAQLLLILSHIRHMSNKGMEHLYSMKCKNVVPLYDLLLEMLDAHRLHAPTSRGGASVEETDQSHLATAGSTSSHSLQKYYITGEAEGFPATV"}, "[3]": {"target": "T2, Estrogen receptor", "remark": "listed apart in the source", "description": "Antagonist effect on transcriptional activation in MCF-7 cells expressing estrogen receptor alpha"}, "[4]": {"target": "T2, Estrogen receptor", "settings": "mcf7"}, "[5]": {"target": "T1, Estrogen receptor beta", "experiment": "Displacement of [3H]17-beta-estradiol from human Estrogen receptor beta; Not active means no effect at < 1000 nM"}, "[6]": {"target": "T2, Estrogen receptor", "remark": "listed apart in the source", "description": "Agonist effect on transcriptional activation in MCF-7 cells expressing estrogen receptor alpha"}, "[7]": {"target": "T2, Estrogen receptor", "settings": "mcf7", "remark": "listed apart in the source"}}, "note": "pEC50, pIC50: −log10 of the molar value."}
{"smiles": "CCCCN(C)C(=O)CCCCCCCCCCS[C@@H]1Cc2cc(O)ccc2[C@H]2CC[C@]3(C)[C@@H](O)CC[C@H]3[C@@H]21", "values": [{"measurement": "pIC50", "setting": "[1]", "value": 8.05}, {"measurement": "pIC50", "setting": "[2]", "value": 8.05}, {"measurement": "pIC50", "setting": "[3]", "value": 8.46}, {"measurement": "EC50", "setting": "[4]", "value": "Not Active"}]}
{"smiles": "COc1ccc2c(c1)C[C@@H](Sc1ccc(OCCN3CCCCC3)cc1)[C@@H]1[C@@H]2CC[C@]2(C)[C@@H](O)CC[C@@H]12", "values": [{"measurement": "IC50", "setting": "[5]", "value": "Not Active"}]}
{"smiles": "C[C@]12CC[C@@H]3c4ccc(O)cc4C[C@@H](Sc4ccc(/C=C/C(=O)O)cc4)[C@H]3[C@@H]1CC[C@@H]2O", "values": [{"measurement": "pIC50", "setting": "[1]", "value": 7.68}, {"measurement": "pEC50", "setting": "[6]", "value": 7.89}, {"measurement": "pIC50", "setting": "[2]", "value": 7.34}, {"measurement": "IC50", "setting": "[7]", "value": "Not Active"}]}
{"smiles": "CCCCN(C)C(=O)CCCCCCCCCCS[C@H]1[C@@H]2[C@H](CC[C@]3(C)[C@@H](O)CC[C@@H]23)c2ccc(O)cc2[C@H]1O", "values": [{"measurement": "pIC50", "setting": "[1]", "value": 7.49}, {"measurement": "pEC50", "setting": "[6]", "value": 7.40}, {"measurement": "pIC50", "setting": "[2]", "value": 7.49}, {"measurement": "pIC50", "setting": "[3]", "value": 6.50}]}
{"smiles": "CC(=O)O[C@H]1CC[C@H]2[C@@H]3[C@H](Sc4ccc(Br)cc4)C(=O)c4cc(O)ccc4[C@H]3CC[C@]12C", "values": [{"measurement": "IC50", "setting": "[5]", "value": "Not Active"}, {"measurement": "IC50", "setting": "[7]", "value": "Not Active"}]}
{"smiles": "CN(C)C(=O)/C=C/c1ccc(S[C@@H]2Cc3cc(O)ccc3[C@H]3CC[C@]4(C)[C@@H](O)CC[C@H]4[C@@H]32)cc1", "values": [{"measurement": "pIC50", "setting": "[1]", "value": 7.23}, {"measurement": "pEC50", "setting": "[6]", "value": 6.76}, {"measurement": "pIC50", "setting": "[2]", "value": 7.03}, {"measurement": "IC50", "setting": "[7]", "value": "Not Active"}]}
{"smiles": "C[C@]12CC[C@@H]3c4ccc(O)cc4C(O)[C@@H](Sc4ccc(Br)cc4)[C@H]3[C@@H]1CC[C@@H]2O", "note": "(some centres not stated)", "values": [{"measurement": "pIC50", "setting": "[1]", "value": 7.20}, {"measurement": "pEC50", "setting": "[6]", "value": 8.15}, {"measurement": "pIC50", "setting": "[2]", "value": 6.40}, {"measurement": "IC50", "setting": "[7]", "value": "Not Active"}]}
{"smiles": "CCCCN(C)C(=O)CCCCCCCCCCS[C@@H]1C(=O)c2cc(O)ccc2[C@H]2CC[C@]3(C)[C@@H](O)CC[C@H]3[C@H]12", "values": [{"measurement": "pIC50", "setting": "[1]", "value": 7.43}, {"measurement": "pEC50", "setting": "[6]", "value": 7.55}, {"measurement": "pIC50", "setting": "[2]", "value": 7.48}, {"measurement": "pIC50", "setting": "[3]", "value": 6.28}]}
